Experimental data published in patent publication US9834542B2, “LXR modulators” (BRISTOL-MYERS SQUIBB COMPANY, priority 2013, dated 2017).

Biological target: T1, LXRβ (Homo sapiens, UniProt P55055)
T1 construct: Co-transfection expression plasmids, comprising full-length LXRα (pCMX-h LXRα[…] or LXRβ (pCMX-hLXRβ)); expressed in transfected cells; host or cells: CV-1 African Green Monkey Kidney Cells
T1 sequence (P55055 1-460): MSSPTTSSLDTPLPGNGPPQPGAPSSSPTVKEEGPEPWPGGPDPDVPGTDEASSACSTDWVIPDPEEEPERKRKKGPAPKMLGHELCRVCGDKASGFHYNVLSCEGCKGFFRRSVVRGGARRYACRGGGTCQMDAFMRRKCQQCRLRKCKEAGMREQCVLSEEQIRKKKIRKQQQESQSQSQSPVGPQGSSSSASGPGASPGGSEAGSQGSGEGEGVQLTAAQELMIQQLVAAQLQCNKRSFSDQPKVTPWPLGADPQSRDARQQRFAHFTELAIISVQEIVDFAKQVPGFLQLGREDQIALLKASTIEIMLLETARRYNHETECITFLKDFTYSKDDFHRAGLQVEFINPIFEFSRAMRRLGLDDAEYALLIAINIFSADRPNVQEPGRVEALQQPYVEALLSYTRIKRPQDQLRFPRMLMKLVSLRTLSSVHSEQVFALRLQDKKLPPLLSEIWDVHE
T1 sequence (P19793 1-462 partner): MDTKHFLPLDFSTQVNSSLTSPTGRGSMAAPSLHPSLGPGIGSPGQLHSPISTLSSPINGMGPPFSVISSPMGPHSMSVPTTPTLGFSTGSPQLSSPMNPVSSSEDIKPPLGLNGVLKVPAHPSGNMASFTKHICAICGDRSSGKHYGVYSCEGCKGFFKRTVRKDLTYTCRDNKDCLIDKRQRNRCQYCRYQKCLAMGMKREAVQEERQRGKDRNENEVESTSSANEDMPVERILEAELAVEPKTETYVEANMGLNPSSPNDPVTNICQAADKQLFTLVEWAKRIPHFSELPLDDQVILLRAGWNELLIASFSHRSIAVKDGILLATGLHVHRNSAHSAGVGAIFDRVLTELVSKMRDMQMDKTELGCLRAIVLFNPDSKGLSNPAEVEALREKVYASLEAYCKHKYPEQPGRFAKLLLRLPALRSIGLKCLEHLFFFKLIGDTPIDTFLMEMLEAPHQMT
Experiment: Co-transfection assay (LXRE luciferase reporter), LXRβ
Format: cell-based
Conditions: for EC50: CV-1 cells transfected with pCMX-hLXRβ and LXREx1-Tk-Luciferase, 20 hours incubation; for Emax: LXRβ co-transfection, relative to high control 1-(2,4-difluorobenzyl)-2-oxo-6-(4-phenoxyphenyl)-4-(trifluoromethyl)-1,2-dihydropyridine-3-carbonitrile, read-out: % Efficacy
Outline: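 Cell-based LXRβ agonism measured as LXRE-luciferase induction in transiently transfected CV-1 cells after 20 h treatment. Potency is the curve-fit EC50; efficacy is expressed as percent of a full-agonist control's maximal response.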

Compound | EC50 | Emax
Cc1nc(-c2ccc(OC(F)(F)F)cc2)c(-c2cc(-c3cc(F)c(CO)c(S(C)(=O)=O)c3)ccc2-n2cc(C(F)(F)F)nc2C)o1 [Example 603, (3-fluoro-3′-(2-methyl-4-(4-(trifluoromethoxy)phenyl)oxazol-5-yl)-4′-(2-methyl-4-(trifluoromethyl)-1H-imidazol-1-yl)-5-(methylsulfonyl)-[1,1′-biphenyl]-4-yl)methanol] | 40 nM | 91%
Cc1nc(C(F)(F)F)cn1-c1c(F)cc(-c2ccc(CO)c(S(C)(=O)=O)c2)cc1-n1nncc1-c1ccc(Cl)cc1 [Example 210, {3′-[5-(4-chlorophenyl)-1H-1,2,3-triazol-1-yl]-5′-fluoro-3-(methylsulfonyl)-4′-[2-methyl-4-(trifluoromethyl)-1H-imidazol-1-yl]biphenyl-4-yl}methanol] | 394 nM | 78%
Cc1nc(-c2cc(-c3cc(F)c(CO)c(S(C)(=O)=O)c3)ccc2-n2cc(C(F)(F)F)nc2C)c(-c2ccc(Cl)nc2Cl)o1 [Example 567, (3′-(5-(2,6-dichloropyridin-3-yl)-2-methyloxazol-4-yl)-3-fluoro-4′-(2-methyl-4-(trifluoromethyl)-1H-imidazol-1-yl)-5-(methylsulfonyl)-[1,1′-biphenyl]-4-yl)methanol] | 111 nM | 93%
CNS(=O)(=O)c1cccc(-c2cc(F)c(-n3cc(C(F)(F)F)nc3C)c(-n3nncc3-c3ccc(OC(F)(F)F)cc3)c2)c1 [Example 205, 3′-fluoro-N-methyl-4′-[2-methyl-4-(trifluoromethyl)-1H-imidazol-1-yl]-5′-(5-{4-[(trifluoromethyl)oxy]phenyl}-1H-1,2,3-triazol-1-yl)biphenyl-3-sulfonamide] | 111 nM | 85%
CCOCc1ccc(-c2ccc(-n3cc(C(F)(F)F)nc3C)c(-n3nncc3-c3ccc(OC(F)(F)F)cc3)c2)cc1S(C)(=O)=O [Example 85, 1-{4′-[(ethyloxy)methyl]-3′-(methylsulfonyl)-4-[2-methyl-4-(trifluoromethyl)-1H-imidazol-1-yl]biphenyl-3-yl}-5-{4-[(trifluoromethyl)oxy]phenyl}-1H-1,2,3-triazole] | 118 nM | 123%
CCc1nc(-c2cc(-c3cccc(S(C)(=O)=O)c3)ccc2-n2cc(C(F)(F)F)nc2C)c(-c2ccc(OC(F)(F)F)cc2)o1 [Example 555, 2-ethyl-4-(4-(2-methyl-4-(trifluoromethyl)-1H-imidazol-1-yl)-3′-(methylsulfonyl)-[1,1′-biphenyl]-3-yl)-5-(4-(trifluoromethoxy)phenyl)oxazole] | 18 nM | 96%
Cc1cc(-c2cc(-c3ccc(CO)c(S(C)(=O)=O)c3)ccc2-n2cc(C(F)(F)F)nc2C)n(-c2ccc3c(c2)OC(F)(F)O3)n1 [Example 300, (3′-(1-(2,2-difluorobenzo[d][1,3]dioxol-5-yl)-3-methyl-1H-pyrazol-5-yl)-4′-(2-methyl-4-(trifluoromethyl)-1H-imidazol-1-yl)-3-(methylsulfonyl)biphenyl-4-yl)methanol] | 12 nM | 61%
Cc1nc(C(F)(F)F)cn1-c1ccc(-c2cccc(C(C)(C)C(N)=O)c2)cc1-n1nncc1C(=O)c1ccc(Cl)cc1 [Example 139, 2-(3′-{5-[(4-chlorophenyl)carbonyl]-1H-1,2,3-triazol-1-yl}-4′-[2-methyl-4-(trifluoromethyl)-1H-imidazol-1-yl]biphenyl-3-yl)-2-methylpropanamide] | 1490 nM | 71%
Cc1nc(-c2cc(-c3cccc(S(C)(=O)=O)c3)ccc2-n2cc(C(F)(F)F)nc2C)c(-c2cccc(Cl)n2)o1 [Example 441, 5-(6-chloropyridin-2-yl)-2-methyl-4-(4-(2-methyl-4-(trifluoromethyl)-1H-imidazol-1-yl)-3′-(methylsulfonyl)biphenyl-3-yl)oxazole] | 1310 nM | 38%
